Measured values reported in US11564948B2, “Therapeutic methods using erythrocytes” (Sangui Bio Pty Ltd, priority 2015, dated 2023).

System: MIF
Assay: RBCs or RBC ghosts cultured in plasma with heparin or EDTA, MIF ELISA (Example 1)
Format: cell-based, human
Conditions: addition of EDTA to the cell suspensions, compared with heparin treatment; FIG. 2
Procedure: To determine if the presence of anticoagulants alter the capacity for protein binding to red blood cells, these cells were incubated in plasma with or without heparin or EDTA. Whole blood from healthy volunteers was collected into EDTA vacutainers (3 mg/mL). Plasma was collected from blood collected into hepain and citrate vacutainers. […] The ghosts were then isolated by centrifugation (16,000 g, 20 minutes) and were resuspended in PBS. […] The red blood cells or ghosts were then cultured for 0, 1, or 18 hours at 37° C. As controls, EDTA plasma containing heparin or EDTA were culture under the same conditions. Following incubation, the cell free supernatants was collected and stored at −80° C. Prior to analysis, samples were subjected to ×3 freeze-thaw cycles. MIF concentration of the samples was quantified using a MIF ELISA.

O=C(O)CN(CCN(CC(=O)O)CC(=O)O)CC(=O)O [EDTA, ethylenediaminetetraacetic acid]
MIF in the RBC lysates and ghosts 'lysates': substantially less
